Assay results reported in patent US9434724B2, “Quinuclidines for modulating alpha 7 activity” (priority 2014, dated 2016).
Read-outs that look alike come from different tables or passages of the source.

Tests used:
[1] = biological target: rat brain nicotinic receptor (α7 NAChR) (Rattus norvegicus (Rat), UniProt Q05941); type: binding
[2] = Metabolic stability assay in human liver microsomes (HLM); type: in vitro ADME; conditions: human, microsomes, 1 μM
In short: (§1)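 In Protocol 1, compound was 1 μM final with NADPH at 37 °C, sampled at 0–45 min. In Protocol 2, 1.5 μM compound with 0.75 mg/mL microsomes (pre-NADPH mix) in 0.1 M potassium phosphate, 1 mM EDTA, pH 7.4 was pre-incubated 10 min, then NADPH started the reaction. Both: LC-MS/MS % remaining versus time 0, half-life from single-phase exponential fit.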

[3] = Metabolic stability assay in rat liver microsomes (RLM); type: in vitro ADME; conditions: rat, microsomes, 1 μM
In short: as §1

Human plasma stability = type: in vitro ADME; conditions: human, plasma
In short: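 Compound remaining was quantified by LC-MS/MS as peak-area ratio to internal standard relative to time 0, with half-lives from single-exponential fits. Protocol 1 incubated 1 μM in heparinized human plasma (pH 7.4, 37° C) to 120 min; protocol 2 used 5 μM, pH 7.4–8.0, 37° C, n=2, to 120 min.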

CYP2C19 = CYP2C19 (Homo sapiens (Human), UniProt P33261); conditions: microsomes
Sequence of CYP2C19 (P33261 whole entry): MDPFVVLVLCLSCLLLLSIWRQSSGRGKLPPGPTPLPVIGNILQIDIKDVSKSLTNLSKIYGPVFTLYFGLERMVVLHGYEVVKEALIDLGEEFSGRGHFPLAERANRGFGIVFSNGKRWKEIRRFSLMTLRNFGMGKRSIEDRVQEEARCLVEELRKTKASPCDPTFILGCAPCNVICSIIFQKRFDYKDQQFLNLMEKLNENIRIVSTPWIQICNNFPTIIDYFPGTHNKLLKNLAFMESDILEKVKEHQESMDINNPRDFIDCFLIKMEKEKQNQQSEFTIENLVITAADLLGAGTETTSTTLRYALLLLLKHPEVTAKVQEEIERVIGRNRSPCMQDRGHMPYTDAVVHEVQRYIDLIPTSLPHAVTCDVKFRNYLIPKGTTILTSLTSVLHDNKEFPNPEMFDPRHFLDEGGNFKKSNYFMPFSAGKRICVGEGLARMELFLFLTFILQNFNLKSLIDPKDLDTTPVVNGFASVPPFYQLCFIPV

CYP3A4 = CYP3A4 (Homo sapiens (Human), UniProt P08684); assay: Cytochrome P450 inhibition in human liver microsomes, CYP3A4
Sequence of CYP3A4 (P08684 whole entry): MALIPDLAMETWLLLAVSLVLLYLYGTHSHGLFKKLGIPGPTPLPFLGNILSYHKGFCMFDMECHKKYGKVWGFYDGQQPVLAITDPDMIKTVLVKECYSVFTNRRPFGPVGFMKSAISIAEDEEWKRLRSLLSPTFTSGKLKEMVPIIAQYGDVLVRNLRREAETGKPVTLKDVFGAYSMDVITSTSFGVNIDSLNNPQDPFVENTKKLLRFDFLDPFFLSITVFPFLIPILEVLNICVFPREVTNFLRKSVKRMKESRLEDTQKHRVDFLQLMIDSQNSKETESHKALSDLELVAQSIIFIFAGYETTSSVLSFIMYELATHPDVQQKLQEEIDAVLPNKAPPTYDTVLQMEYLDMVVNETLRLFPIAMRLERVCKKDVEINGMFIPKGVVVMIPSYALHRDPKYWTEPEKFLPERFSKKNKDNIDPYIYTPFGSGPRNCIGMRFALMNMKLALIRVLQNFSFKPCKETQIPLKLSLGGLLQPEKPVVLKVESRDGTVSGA

CYP1A2 = CYP1A2 (Homo sapiens (Human), UniProt P05177); assay: Cytochrome P450 inhibition in human liver microsomes, CYP1A2
Sequence of CYP1A2 (P05177 whole entry): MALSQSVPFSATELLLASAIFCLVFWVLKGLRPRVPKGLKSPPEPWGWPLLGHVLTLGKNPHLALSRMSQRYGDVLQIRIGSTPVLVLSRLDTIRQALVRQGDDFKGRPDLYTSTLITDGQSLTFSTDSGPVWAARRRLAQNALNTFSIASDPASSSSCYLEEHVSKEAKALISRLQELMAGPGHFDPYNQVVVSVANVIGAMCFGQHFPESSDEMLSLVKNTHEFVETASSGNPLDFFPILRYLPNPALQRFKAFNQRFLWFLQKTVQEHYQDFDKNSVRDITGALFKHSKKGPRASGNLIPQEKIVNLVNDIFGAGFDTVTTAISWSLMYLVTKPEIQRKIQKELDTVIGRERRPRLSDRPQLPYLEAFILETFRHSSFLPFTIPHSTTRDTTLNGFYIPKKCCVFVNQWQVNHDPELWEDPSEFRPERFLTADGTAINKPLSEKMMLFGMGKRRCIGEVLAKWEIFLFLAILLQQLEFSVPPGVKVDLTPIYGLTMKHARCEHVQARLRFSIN

[4] = read-out: 3A4 IC50 (Midazolam), substrate midazolam, Protocol 1
[5] = read-out: 3A4 IC50 (Testosterone), substrate testosterone, Protocol 1

Sequence of rat brain nicotinic receptor (α7 NAChR) (Q05941 23-502 limits assumed): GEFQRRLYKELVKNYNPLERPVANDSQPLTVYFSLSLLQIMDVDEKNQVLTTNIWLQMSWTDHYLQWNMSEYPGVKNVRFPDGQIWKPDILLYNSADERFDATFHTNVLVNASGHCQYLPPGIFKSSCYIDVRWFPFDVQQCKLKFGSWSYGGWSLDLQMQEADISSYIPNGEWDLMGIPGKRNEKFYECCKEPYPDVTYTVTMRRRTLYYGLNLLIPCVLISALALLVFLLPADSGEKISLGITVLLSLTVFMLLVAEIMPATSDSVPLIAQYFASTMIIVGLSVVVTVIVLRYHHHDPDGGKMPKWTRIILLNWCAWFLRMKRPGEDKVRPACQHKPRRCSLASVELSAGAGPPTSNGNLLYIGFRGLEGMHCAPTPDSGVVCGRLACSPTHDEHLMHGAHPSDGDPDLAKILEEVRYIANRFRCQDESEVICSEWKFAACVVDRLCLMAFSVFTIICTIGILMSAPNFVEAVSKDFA

For `COc1ccc2[nH]cc(C(=O)OCC34CCN(CC3)CC4)c2c1OC` [Compound 40, quinuclidin-4-ylmethyl 4,5-dimethoxy-1H-indole-3-carboxylate], the IC50 [1] was 69.6 nM, the Ki [1] was 60 nM and the HLM [2] was 7.67 mL/min/kg. For the same molecule, the RLM [3] was 49.42 mL/min/kg, the T1/2 (Human plasma stability) was “∞” and the “% Remaining @ 2 h” value (Human plasma stability; 5 μM) was 106.8%. The IC50 (CYP2C19; 45 min) was over 10000 nM, the IC50 (CYP3A4; [4]) was over 10000 nM and the IC50 (CYP3A4; [5]) was over 10000 nM. The IC50 (CYP1A2; read-out: 1A2 IC50, Protocol 1) was over 10000 nM.

`O=C(OCC12CCN(CC1)CC2)c1c[nH]c2cccc(Cl)c12` [Compound 35, quinuclidin-4-ylmethyl 4-chloro-1H-indole-3-carboxylate] gave an IC50 [1] of 26.6 nM, a Ki [1] of 23 nM and an HLM ([2]; pH 7.4) of under 13.608 mL/min/kg. The RLM ([3]; pH 7.4) was 183.6 mL/min/kg, the “% Remaining @ 2 h” value (Human plasma stability; 1 μM, pH 7.4) was 56% and the half-life at 1 μM (Human plasma stability; pH 7.4) was over 2 h. It also gave an IC50 (CYP2C19) of over 10000 nM and an IC50 (CYP1A2; read-out: 1A2 IC50, Protocol 2) of over 10000 nM.

With `COc1ccc2[nH]cc(C(=O)OCC34CCN(CC3)CC4)c2c1Cl` [Compound 39, quinuclidin-4-ylmethyl 4-chloro-5-methoxy-1H-indole-3-carboxylate] the IC50 [1] was 23.9 nM, the Ki [1] was 20.6 nM and the HLM [2] was 9.18 mL/min/kg. For the same molecule, the RLM [3] was 262.35 mL/min/kg, the “% Remaining @ 2 h” value (Human plasma stability; 5 μM) was 14.05% and the IC50 (CYP2C19; 45 min) was over 10000 nM. The IC50 (CYP3A4; [4]) was over 10000 nM, the IC50 (CYP3A4; [5]) was over 10000 nM and the IC50 (CYP1A2; read-out: 1A2 IC50, Protocol 1) was over 10000 nM.

Work on `Cc1cccc2[nH]cc(C(=O)OCC34CCN(CC3)CC4)c12` [Compound 21, quinuclidin-4-ylmethyl 4-methyl-1H-indole-3-carboxylate] yielded an IC50 [1] of 58.8 nM, a Ki [1] of 50.9 nM and an HLM ([2]; pH 7.4) of under 13.608 mL/min/kg. The RLM ([3]; pH 7.4) was 379.107 mL/min/kg, the “% Remaining @ 2 h” value (Human plasma stability; 1 μM, pH 7.4) was 83% and the half-life at 1 μM (Human plasma stability; pH 7.4) was over 2 h. For the same molecule, the IC50 (CYP2C19) was over 10000 nM and the IC50 (CYP1A2; read-out: 1A2 IC50, Protocol 2) was over 10000 nM.

`O=C(OCC12CCN(CC1)CC2)c1c[nH]c2ccc(Br)cc12` [Compound 23, quinuclidin-4-ylmethyl 5-bromo-1H-indole-3-carboxylate] showed an IC50 [1] of 424 nM, a Ki [1] of 374 nM and an HLM ([2]; pH 7.4) of under 13.608 mL/min/kg. For the same molecule, the RLM ([3]; pH 7.4) was 81.6815 mL/min/kg, the “% Remaining @ 2 h” value (Human plasma stability; 1 μM, pH 7.4) was 21% and the half-life at 1 μM (Human plasma stability; pH 7.4) was 0.882 h. It also gave an IC50 (CYP2C19) of over 10000 nM and an IC50 (CYP1A2; read-out: 1A2 IC50, Protocol 2) of over 10000 nM.

Work on `O=C(OCC12CCN(CC1)CC2)c1c[nH]c2cc(Cl)ccc12` [Compound 26, quinuclidin-4-ylmethyl 6-chloro-1H-indole-3-carboxylate] yielded an IC50 [1] of 451 nM, a Ki [1] of 398 nM and an HLM ([2]; pH 7.4) of under 13.608 mL/min/kg. For the same molecule, the RLM ([3]; pH 7.4) was 75.0501 mL/min/kg, the “% Remaining @ 2 h” value (Human plasma stability; 1 μM, pH 7.4) was 65% and the half-life at 1 μM (Human plasma stability; pH 7.4) was over 2 h. The IC50 (CYP2C19) was over 10000 nM and the IC50 (CYP1A2; read-out: 1A2 IC50, Protocol 2) was over 10000 nM.

With `O=C(OCC12CCN(CC1)CC2)c1c[nH]c2cccc(Br)c12` [Compound 24, quinuclidin-4-ylmethyl 4-bromo-1H-indole-3-carboxylate] the IC50 [1] was 58.1 nM, the Ki [1] was 50.4 nM and the HLM ([2]; pH 7.4) was under 13.608 mL/min/kg. For the same molecule, the RLM ([3]; pH 7.4) was 175.569 mL/min/kg, the “% Remaining @ 2 h” value (Human plasma stability; 1 μM, pH 7.4) was 89% and the half-life at 1 μM (Human plasma stability; pH 7.4) was over 2 h. It also gave an IC50 (CYP2C19) of over 10000 nM and an IC50 (CYP1A2; read-out: 1A2 IC50, Protocol 2) of over 10000 nM.

`O=C(OCC12CCN(CC1)CC2)c1c[nH]c2c(Cl)cccc12` [Compound 25, quinuclidin-4-ylmethyl 7-chloro-1H-indole-3-carboxylate] showed an IC50 [1] of 1650 nM, a Ki [1] of 1450 nM and an HLM ([2]; pH 7.4) of under 13.608 mL/min/kg. For the same molecule, the RLM ([3]; pH 7.4) was 219.053 mL/min/kg, the IC50 (CYP2C19) was over 10000 nM and the IC50 (CYP1A2; read-out: 1A2 IC50, Protocol 2) was over 10000 nM.

In the case of `O=C(OCC12CCN(CC1)CC2)c1c[nH]c2cc(Br)ccc12` [Compound 22, quinuclidin-4-ylmethyl 6-bromo-1H-indole-3-carboxylate], the IC50 [1] is reported as 607 nM, the Ki [1] is reported as 532 nM and the HLM ([2]; pH 7.4) is reported as under 13.608 mL/min/kg. The RLM ([3]; pH 7.4) was 49.5027 mL/min/kg, the “% Remaining @ 2 h” value (Human plasma stability; 1 μM, pH 7.4) was 58% and the half-life at 1 μM (Human plasma stability; pH 7.4) was over 2 h. The IC50 (CYP2C19) was over 10000 nM and the IC50 (CYP1A2; read-out: 1A2 IC50, Protocol 2) was over 10000 nM.

`O=C(OCC12CCN(CC1)CC2)c1c[nH]c2cccc(F)c12` [Compound 13, quinuclidin-4-ylmethyl 4-fluoro-1H-indole-3-carboxylate] showed an IC50 [1] of 14.1 nM, a Ki [1] of 12.2 nM and an HLM ([2]; pH 7.4) of under 13.608 mL/min/kg. For the same molecule, the RLM ([3]; pH 7.4) was 94.3866 mL/min/kg, the half-life at 1 μM (Human plasma stability; pH 7.4) was 0.25 h and the IC50 (CYP2C19) was over 10000 nM. For the same molecule, the IC50 (CYP1A2; read-out: 1A2 IC50, Protocol 2) was over 10000 nM.
